# What was measured:
# [1] = Caco-2 permeability assay (CacoReady kit); assay type: in vitro ADME; conditions: human, Caco-2, Caco-2 barrier, CacoReady kit; above 1×10^−6 cm/s classified as permeable
# Method in brief: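 Papp values come from Caco-2 barrier studies intended to predict oral bioavailability; the manufacturer's procedure for the ready-made kit was followed.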
# [2] = logD by shake flask method (octanol / PBS pH 7.4, HPLC); assay type: physicochemical; conditions: octanol / PBS pH 7.4, shake flask
# Method in brief: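 Shake-flask partition of compound between octanol and phosphate-buffered saline at pH 7.4, with each phase quantified by HPLC to give LogD.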
# [3] = biological target: T1, recombinant human transglutaminase 2 (Homo sapiens, UniProt P21980); experiment: Transglutaminase assay (DCC-assay): incorporation of dansylcadaverine into dimethylcasein; assay type: biochemical; conditions: recombinant human TG2 10 nM; dansylcadaverine incorporation into dimethylcasein; read-out: IC50 TG2
# T1 construct: purchased Zedira T022
# T1 sequence (P21980 1-687): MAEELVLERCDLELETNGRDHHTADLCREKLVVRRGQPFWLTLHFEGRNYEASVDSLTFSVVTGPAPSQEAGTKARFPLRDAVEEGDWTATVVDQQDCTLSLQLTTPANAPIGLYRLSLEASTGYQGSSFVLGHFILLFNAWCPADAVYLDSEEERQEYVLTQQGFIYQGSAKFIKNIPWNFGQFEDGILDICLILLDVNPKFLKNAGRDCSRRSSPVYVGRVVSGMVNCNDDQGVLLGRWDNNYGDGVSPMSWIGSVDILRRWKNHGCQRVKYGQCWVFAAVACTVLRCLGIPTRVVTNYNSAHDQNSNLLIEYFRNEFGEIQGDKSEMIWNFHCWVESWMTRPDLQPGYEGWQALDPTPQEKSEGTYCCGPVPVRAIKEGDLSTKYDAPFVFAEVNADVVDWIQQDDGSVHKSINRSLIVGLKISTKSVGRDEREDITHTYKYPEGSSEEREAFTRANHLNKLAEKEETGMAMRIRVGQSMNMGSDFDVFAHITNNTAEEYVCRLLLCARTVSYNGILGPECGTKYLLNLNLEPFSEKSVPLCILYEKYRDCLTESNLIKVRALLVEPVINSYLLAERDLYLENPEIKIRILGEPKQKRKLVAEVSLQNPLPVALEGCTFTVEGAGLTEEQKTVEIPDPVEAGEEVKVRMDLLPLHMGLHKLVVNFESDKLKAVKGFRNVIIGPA
# Method in brief: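 Recombinant human TG2 (10 nM final) incorporates dansylcadaverine into N,N-dimethylcasein. Reaction mix: 50 mM Tris-HCl, 10 mM CaCl2, 10 mM glutathione, 2.5% glycerol, 16.7 µM dansylcadaverine, 4 µM dimethylcasein, 200 mM NaCl, pH 8.0. Fluorescence (ex 330/em 500 nm) was followed 30 min at 37 °C; the 20–30 min slope, expressed as % of 2% DMSO control, gave IC50.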
Papp [1],logD [2],IC50 [3],Compound
1 to 10 ×10⁻⁶ cm/s,< 1,< 40 nM,"NC(=O)C(=O)CC[C@H](NC(=O)c1cc2ccccc2o1)C(=O)Nc1cccn(CC(=O)N[C@@H]2C[C@H]3CC[C@@H]2C3)c1=O [II-146, (S)-2-(benzofuran-2-carboxamido)-N1-(1-(2-((1R,2R,4S)-bicyclo[2.2.1]heptan-2-ylamino)-2-oxoethyl)-2-oxo-1,2-dihydropyridin-3-yl)-5-oxohexanediamide]"
< 1 ×10⁻⁶ cm/s,< 1,400 to 2500 nM,"CNC(=O)C(=O)CC[C@H](NC(=O)c1cnc(NC(C)=O)s1)C(=O)Nc1cccn(CC(=O)NC23CC(C2)C3)c1=O [II-191, (S)-2-(2-acetamidothiazole-5-carboxamido)-N1-(1-(2-(bicyclo[1.1.1]pentan-1-ylamino)-2-oxoethyl)-2-oxo-1,2-dihydropyridin-3-yl)-N6-methyl-5-oxohexanediamide]"
1 to 10 ×10⁻⁶ cm/s,1 to 3,40 to 400 nM,"CNC(=O)C(=O)CC[C@H](NC(=O)c1oc2ccccc2c1C)C(=O)Nc1cccn(CC(=O)NC23CC4CC5C2C[C@@H]2C[C@H]5C(C4)[C@H]3C2)c1=O (stereo in doubt) [II-104, (S)-N1-(1-(2-(diamantane-1-amino)-2-oxoethyl)-2-oxo-1,2-dihydropyridin-3-yl)-N6-methyl-2-(3-methylbenzofuran-2-carboxamido)-5-oxohexanediamide]"
< 1 ×10⁻⁶ cm/s,1 to 3,40 to 400 nM,"CNC(=O)C(=O)CC[C@H](NC(=O)c1snnc1C(C)C)C(=O)Nc1cccn(CC(=O)NC2C3CC4CC(C3)CC2C4)c1=O (stereo partly drawn) [II-203, (S)-2-(4-isopropyl-1,2,3-thiadiazole-5-carboxamido)-N1-(1-(2-(2-adamantylamino)-2-oxoethyl)-2-oxo-1,2-dihydropyridin-3-yl)-N6-methyl-5-oxohexanediamide]"
1 to 10 ×10⁻⁶ cm/s,< 1,40 to 400 nM,"CNC(=O)C(=O)CC[C@H](NC(=O)c1ncn(C)n1)C(=O)Nc1cccn(CC(=O)NC2C3CC4CC(C3)CC2C4)c1=O (stereo partly drawn) [II-135, (S)-N1-(1-(2-(2-adamantylamino)-2-oxoethyl)-2-oxo-1,2-dihydropyridin-3-yl)-N6-methyl-2-(1-methyl-1H-1,2,4-triazole-3-carboxamido)-5-oxohexanediamide]"
< 1 ×10⁻⁶ cm/s,< 1,40 to 400 nM,"CNC(=O)C(=O)CC[C@H](NC(=O)[C@H]1CCNC1)C(=O)Nc1cccn(CC(=O)NC2C3CC4CC(C3)CC2C4)c1=O (stereo partly drawn) [II-55, (S)-N1-(1-(2-(2-adamantylamino)-2-oxoethyl)-2-oxo-1,2-dihydropyridin-3-yl)-N6-methyl-5-oxo-2-((S)-pyrrolidine-3-carboxamido)hexanediamide]"
1 to 10 ×10⁻⁶ cm/s,1 to 3,40 to 400 nM,"CNC(=O)C(=O)CC[C@H](NC(=O)c1sc(C(F)(F)F)nc1C)C(=O)Nc1cccn(CC(=O)N[C@@H]2C[C@@H]3CC[C@H]2C3)c1=O [II-154, (S)-N1-(1-(2-((1S,2R,4R)-bicyclo[2.2.1]heptan-2-ylamino)-2-oxoethyl)-2-oxo-1,2-dihydropyridin-3-yl)-N6-methyl-2-(4-methyl-2-(trifluoromethyl)thiazole-5-carboxamido)-5-oxohexanediamide]"
< 1 ×10⁻⁶ cm/s,< 1,400 to 2500 nM,"CNC(=O)C(=O)CC[C@H](NC(=O)c1nn[nH]n1)C(=O)Nc1cccn(CC(=O)NC2C3CC4CC(C3)CC2C4)c1=O (stereo partly drawn) [II-52, (S)-N1-(1-(2-(2-adamantylamino)-2-oxoethyl)-2-oxo-1,2-dihydropyridin-3-yl)-N6-methyl-5-oxo-2-(2H-tetrazole-5-carboxamido)hexanediamide]"
< 1 ×10⁻⁶ cm/s,< 1,40 to 400 nM,"Cc1nnsc1C(=O)N[C@@H](CCC(=O)C(N)=O)C(=O)Nc1cccn(CC(=O)NC2C3CC4CC(C3)CC2C4)c1=O (stereo partly drawn) [II-145, (S)-N1-(1-(2-(2-adamantylamino)-2-oxoethyl)-2-oxo-1,2-dihydropyridin-3-yl)-2-(4-methyl-1,2,3-thiadiazole-5-carboxamido)-5-oxohexanediamide]"
< 1 ×10⁻⁶ cm/s,3 to 5,< 40 nM,"CNC(=O)C(=O)CC[C@H](NC(=O)c1cc2c(F)c(F)ccc2[nH]1)C(=O)Nc1cccn(CC(=O)NC2C3CC4CC(C3)CC2C4)c1=O (stereo partly drawn) [II-10, (S)-2-(4,5-difluoro-1H-indole-2-carboxamido)-N1-(1-(2-(2-adamantylamino)-2-oxoethyl)-2-oxo-1,2-dihydropyridin-3-yl)-N6-methyl-5-oxohexanediamide]"
1 to 10 ×10⁻⁶ cm/s,1 to 3,< 40 nM,"CNC(=O)C(=O)CC[C@H](NC(=O)c1oc2ccccc2c1C)C(=O)Nc1cccn(CC(=O)NC2C3CC4CC2CC(Br)(C4)C3)c1=O (stereo partly drawn) [II-71, (S)-N1-(1-(2-(5-bromoadamantane-2-amino)-2-oxoethyl)-2-oxo-1,2-dihydropyridin-3-yl)-N6-methyl-2-(3-methylbenzofuran-2-carboxamido)-5-oxohexanediamide]"

# Further lines, the molecule ahead of its results:
Compound,Papp [1],logD [2],IC50 [3]
"C=CCNC(=O)C(=O)CC[C@H](NC(=O)c1oc2ccccc2c1C)C(=O)Nc1cccn(CC(=O)NC2C3CC4CC(C3)CC2C4)c1=O (stereo partly drawn) [II-117, (S)-N1-allyl-N6-(1-(2-(2-adamantylamino)-2-oxoethyl)-2-oxo-1,2-dihydropyridin-3-yl)-5-(3-methylbenzofuran-2-carboxamido)-2-oxohexanediamide]",1 to 10 ×10⁻⁶ cm/s,3 to 5,40 to 400 nM
"Cn1nccc1C(=O)N[C@@H](CCC(=O)C(N)=O)C(=O)Nc1cccn(CC(=O)NC2C3CC4CC(C3)CC2C4)c1=O (stereo partly drawn) [II-144, (S)-N1-(1-(2-(2-adamantylamino)-2-oxoethyl)-2-oxo-1,2-dihydropyridin-3-yl)-2-(1-methyl-1H-pyrazole-5-carboxamido)-5-oxohexanediamide]",< 1 ×10⁻⁶ cm/s,< 1,400 to 2500 nM
"CNC(=O)C(=O)CC[C@H](NC(=O)c1cc2ccccc2o1)C(=O)Nc1cccn(CC(=O)NC2C3CCCC2CC3)c1=O (stereo partly drawn) [II-171, (2S)-2-(benzofuran-2-carboxamido)-N1-(1-(2-(bicyclo[3.2.1]octan-8-ylamino)-2-oxoethyl)-2-oxo-1,2-dihydropyridin-3-yl)-N6-methyl-5-oxohexanediamide]",1 to 10 ×10⁻⁶ cm/s,< 1,< 40 nM
"CNC(=O)C(=O)CC[C@H](NC(=O)c1scc(C)c1Cl)C(=O)Nc1cccn(CC(=O)NC2C3CC4CC(C3)CC2C4)c1=O (stereo partly drawn) [II-43, (S)-2-(3-chloro-4-methylthiophene-2-carboxamido)-N1-(1-(2-(2-adamantylamino)-2-oxoethyl)-2-oxo-1,2-dihydropyridin-3-yl)-N6-methyl-5-oxohexanediamide]",1 to 10 ×10⁻⁶ cm/s,1 to 3,400 to 2500 nM
"CNC(=O)C(=O)CC[C@H](NC(=O)c1oc2ccccc2c1C)C(=O)Nc1cccn(CC23CC4CC(CC(O)(C4)C2)C3)c1=O [II-108, (2S)-N1-(1-((3-hydroxy-1-adamantyl)methyl)-2-oxo-1,2-dihydropyridin-3-yl)-N6-methyl-2-(3-methylbenzofuran-2-carboxamido)-5-oxohexanediamide]",< 1 ×10⁻⁶ cm/s,1 to 3,40 to 400 nM
"CNC(=O)C(=O)CC[C@H](NC(=O)c1c[nH]c(C(N)=O)c1)C(=O)Nc1cccn(CC(=O)NC23CC(C2)C3)c1=O [II-192, (S)-N4-(1-(1-(2-(bicyclo[1.1.1]pentan-1-ylamino)-2-oxoethyl)-2-oxo-1,2-dihydropyridin-3-ylamino)-6-(methylamino)-1,5,6-trioxohexan-2-yl)-1H-pyrrole-2,4-dicarboxamide]",< 1 ×10⁻⁶ cm/s,< 1,400 to 2500 nM
"CNC(=O)C(=O)CC[C@H](NC(=O)[C@@H]1CCCN1C(C)=O)C(=O)Nc1cccn(CC(=O)NC2C3CC4CC(C3)CC2C4)c1=O (stereo partly drawn) [II-50, (S)-2-((S)-1-acetylpyrrolidine-2-carboxamido)-N1-(1-(2-(2-adamantylamino)-2-oxoethyl)-2-oxo-1,2-dihydropyridin-3-yl)-N6-methyl-5-oxohexanediamide]",< 1 ×10⁻⁶ cm/s,< 1,< 40 nM
"CNC(=O)C(=O)CC[C@H](NC(=O)c1sc(C(F)(F)F)nc1C)C(=O)Nc1cccn(CC(=O)N[C@@H]2C[C@H]3CC[C@@H]2C3)c1=O [II-129, (2S)-N1-(1-(2-((1R,2R,4S)-bicyclo[2.2.1]heptan-2-ylamino)-2-oxoethyl)-2-oxo-1,2-dihydropyridin-3-yl)-N6-methyl-2-(4-methyl-2-(trifluoromethyl)thiazole-5-carboxamido)-5-oxohexanediamide]",< 1 ×10⁻⁶ cm/s,1 to 3,40 to 400 nM

# — US20240383856A1 (Zedira GmbH, priority 2021, published 2024)
